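Grown in 96-well plates, cells were treated for 48 hours with each compound at five concentrations. Insufficient inhibition: endpoint recorded as highest concentration tested. GI50 is the concentration that inhibits growth by half.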 The source made the active and inactive calls. No stated cut-off is given here; in the data, active = GI50 up to about 1.1 µM and inactive = higher.
Assays:
Experiment in all cases: NCI anticancer screen, dose series, 48 h
ACHN = tested on: ACHN
COLO 205 = tested on: COLO 205
HOP-62 = tested on: HOP-62
IGROV-1 = tested on: IGROV-1
KM-20L2 = tested on: KM-20L2
KM12 = tested on: KM12
M14 = tested on: M14
Malme-3M = tested on: Malme-3M
NCI-H226 = tested on: NCI-H226
SF-268 = tested on: SF-268
SF-539 = tested on: SF-539
SK-OV-3 = tested on: SK-OV-3
SN12C = tested on: SN12C
SNB-75 = tested on: SNB-75
UACC-257 = tested on: UACC-257
UACC-62 = tested on: UACC-62
HCT-15 = tested on: HCT-15
OVCAR-4 = tested on: OVCAR-4

| SMILES | GI50 (ACHN) | GI50 (COLO 205) | GI50 (HOP-62) | GI50 (IGROV-1) | GI50 (KM-20L2) | GI50 (KM12) | GI50 (M14) | GI50 (Malme-3M) | GI50 (NCI-H226) | GI50 (SF-268) | GI50 (SF-539) | GI50 (SK-OV-3) | GI50 (SN12C) | GI50 (SNB-75) | GI50 (UACC-257) | GI50 (UACC-62) | GI50 (HCT-15) | GI50 (OVCAR-4) |
| --- | --- | --- | --- | --- | --- | --- | --- | --- | --- | --- | --- | --- | --- | --- | --- | --- | --- | --- |
| COc1c(C)c2c(c(C)c1Cl)Oc1c(C=O)c(O)c(Cl)c(C)c1C(=O)O2 | 22.4 µM (inactive) | 22.8 µM (inactive) | 24.3 µM (inactive) | 31.6 µM (inactive) | 30.5 µM (inactive) | 31.8 µM (inactive) | 20.9 µM (inactive) | 23.2 µM (inactive) | 28.7 µM (inactive) | 27.8 µM (inactive) | 18.5 µM (inactive) | 33.2 µM (inactive) | 33.3 µM (inactive) | 23.4 µM (inactive) | 31.4 µM (inactive) | 21.6 µM (inactive) |  |  |
| CC1=C(C(=O)Nc2ccccc2C)C(/C=C/c2ccccc2)C(C(=O)Nc2ccccc2C)=C(C)N1 | > 100 µM (inactive) | > 100 µM (inactive) | > 100 µM (inactive) | > 100 µM (inactive) | > 100 µM (inactive) | > 100 µM (inactive) | > 100 µM (inactive) | > 100 µM (inactive) | > 100 µM (inactive) | > 100 µM (inactive) | > 100 µM (inactive) | > 100 µM (inactive) | > 100 µM (inactive) | 33.5 µM (inactive) | > 100 µM (inactive) | > 100 µM (inactive) | > 100 µM | 96.4 µM (inactive) |
| COc1cc(C2C(Cl)C(=O)N2NC(=O)c2ccc(N)cc2)cc(Br)c1O (centres undefined) | 19.2 µM (inactive) | 18.7 µM (inactive) | 15.1 µM (inactive) | 19.7 µM (inactive) | 17.7 µM (inactive) | 16 µM (inactive) | 15.5 µM (inactive) | 14.5 µM (inactive) | 21.5 µM (inactive) | 4.19 µM (inactive) | 19.5 µM (inactive) | 28.5 µM (inactive) | 17 µM (inactive) | 17.2 µM (inactive) | 19 µM (inactive) | 14 µM (inactive) | 15 µM | 14.8 µM (inactive) |
| O=C(/C=C\c1ccc(Cl)c(Cl)c1)c1ccc(Cl)cc1Cl | 17.3 µM (inactive) | > 10 µM (inactive) | > 10 µM (inactive) | 18 µM (inactive) | 2.69 µM (inactive) | 8.38 µM (inactive) | 21.9 µM (inactive) | 17.9 µM (inactive) | 9.51 µM (inactive) | 21.6 µM (inactive) | 20 µM (inactive) | 19.9 µM (inactive) | 24.9 µM (inactive) | 17.1 µM (inactive) | 19.9 µM (inactive) | 18.5 µM (inactive) | 4.15 µM | 24.4 µM (inactive) |
| CN1CCN2c3ccccc3CC(C#N)(C#N)C2C1 (centres undefined) | > 100 µM (inactive) | > 100 µM (inactive) |  | > 100 µM (inactive) | > 100 µM (inactive) | > 100 µM (inactive) | > 100 µM (inactive) | > 100 µM (inactive) | > 100 µM (inactive) | > 100 µM (inactive) | > 100 µM (inactive) | > 100 µM (inactive) | > 100 µM (inactive) | > 100 µM (inactive) | > 100 µM (inactive) | > 100 µM (inactive) | > 100 µM | > 100 µM (inactive) |
| CC[P+](C)(C)CC | > 100 µM (inactive) | > 100 µM (inactive) | > 100 µM (inactive) | > 100 µM (inactive) | > 100 µM (inactive) | > 100 µM (inactive) | > 100 µM (inactive) | > 100 µM (inactive) | > 100 µM (inactive) | > 100 µM (inactive) | > 100 µM (inactive) | > 100 µM (inactive) | > 100 µM (inactive) | > 100 µM (inactive) | > 100 µM (inactive) | > 100 µM (inactive) | > 100 µM | > 100 µM (inactive) |
| C[C@H](NC(=O)n1c2ccccc2c2ccccc21)C(=O)O | > 100 µM (inactive) | > 100 µM (inactive) | > 100 µM (inactive) | > 100 µM (inactive) | > 100 µM (inactive) | > 100 µM (inactive) |  | > 100 µM (inactive) | > 100 µM (inactive) | > 100 µM (inactive) | > 100 µM (inactive) | > 100 µM (inactive) | > 100 µM (inactive) |  | > 100 µM (inactive) | > 100 µM (inactive) | > 100 µM |  |
| O=C(O)/C(=C/c1ccccc1[N+](=O)[O-])c1cccs1 | > 100 µM (inactive) | > 100 µM (inactive) | > 100 µM (inactive) | > 100 µM (inactive) | > 100 µM (inactive) | > 100 µM (inactive) | > 100 µM (inactive) |  | > 100 µM (inactive) | > 100 µM (inactive) | > 100 µM (inactive) | > 100 µM (inactive) | > 100 µM (inactive) | > 100 µM (inactive) | > 100 µM (inactive) | > 100 µM (inactive) | > 100 µM | > 100 µM (inactive) |
| CCOC(=O)C(=O)Nc1ccccc1C(F)(F)F | > 100 µM (inactive) | > 100 µM (inactive) | > 100 µM (inactive) | > 100 µM (inactive) | > 100 µM (inactive) | > 100 µM (inactive) | > 100 µM (inactive) | > 100 µM (inactive) | > 100 µM (inactive) | > 100 µM (inactive) | > 100 µM (inactive) | > 100 µM (inactive) | > 100 µM (inactive) | 79.4 µM (inactive) | > 100 µM (inactive) | > 100 µM (inactive) | > 100 µM | > 100 µM (inactive) |
| CC(C)(C)N1CC2(CCCCC2)C1=O | > 100 µM (inactive) | > 100 µM (inactive) | > 100 µM (inactive) | > 100 µM (inactive) | > 100 µM (inactive) | > 100 µM (inactive) | > 100 µM (inactive) | > 100 µM (inactive) | > 100 µM (inactive) | 99.1 µM (inactive) | > 100 µM (inactive) | > 100 µM (inactive) | > 100 µM (inactive) | > 100 µM (inactive) | > 100 µM (inactive) | > 100 µM (inactive) | > 100 µM | > 100 µM (inactive) |
| O=C(O)[C@@H](NS(=O)(=O)c1ccc([N+](=O)[O-])cc1)c1ccccc1 | > 100 µM (inactive) | > 100 µM (inactive) |  | > 100 µM (inactive) | > 100 µM (inactive) | > 100 µM (inactive) | > 100 µM (inactive) | > 100 µM (inactive) | > 100 µM (inactive) | > 100 µM (inactive) | > 100 µM (inactive) | > 100 µM (inactive) | > 100 µM (inactive) | > 100 µM (inactive) | > 100 µM (inactive) | > 100 µM (inactive) | > 100 µM | > 100 µM (inactive) |
| Cc1c(Cl)cccc1NC(=O)c1cccc([N+](=O)[O-])c1O | 7.83 µM (inactive) | 14.1 µM (inactive) | 9.29 µM (inactive) | 5.83 µM (inactive) | 13.1 µM (inactive) | 21.4 µM (inactive) | 16.8 µM (inactive) | 6.25 µM (inactive) | 15.5 µM (inactive) | 20.3 µM (inactive) | 15.7 µM (inactive) | 25.6 µM (inactive) | 14 µM (inactive) | 17.5 µM (inactive) | 8.51 µM (inactive) | 2.18 µM (inactive) | 14.4 µM | 9.79 µM (inactive) |
| O=C1/C=C(/c2ccc(O)cc2)[C@@H](OC2OC(CO)C(O)C(O)C2O)Cc2ccc(O)cc2O1.O=C1/C=C(/c2ccc(O)cc2)[C@H](O)Cc2ccc(O[C@@H]3OC(CO)C(O)C(O)C3O)cc2O1 (some centres undefined) | > 100 µM (inactive) | > 100 µM (inactive) | > 100 µM (inactive) | > 100 µM (inactive) | > 100 µM (inactive) | > 100 µM (inactive) | > 100 µM (inactive) | > 100 µM (inactive) | > 100 µM (inactive) | > 100 µM (inactive) | > 100 µM (inactive) | > 100 µM (inactive) | > 100 µM (inactive) |  | > 100 µM (inactive) | > 100 µM (inactive) | > 100 µM | > 100 µM (inactive) |
| CC(C)=C1CCC(CN2CCCC2)C1=O (centres undefined) | 18.6 µM (inactive) |  | > 100 µM (inactive) | 75.2 µM (inactive) | 89.7 µM (inactive) | 30.2 µM (inactive) | 19.2 µM (inactive) | 21.4 µM (inactive) | > 100 µM (inactive) | 33.8 µM (inactive) | 53.7 µM (inactive) |  | 17.6 µM (inactive) | 55.2 µM (inactive) | 24.7 µM (inactive) | > 100 µM (inactive) | 18.5 µM | 17.1 µM (inactive) |
| O=C(C(=O)c1ccc(Cc2ccc(C(=O)C(=O)c3ccccc3)cc2)cc1)c1ccccc1 | > 100 µM (inactive) | > 100 µM (inactive) | > 100 µM (inactive) | > 100 µM (inactive) | > 100 µM (inactive) | > 100 µM (inactive) | > 100 µM (inactive) | > 100 µM (inactive) | > 100 µM (inactive) | > 100 µM (inactive) | > 100 µM (inactive) | > 100 µM (inactive) | > 100 µM (inactive) | > 100 µM (inactive) | > 100 µM (inactive) | > 100 µM (inactive) | > 100 µM | > 100 µM (inactive) |
| CC(=O)OC1CCn2nnc(COC(=O)NC(C)C)c21 (centres undefined) | > 100 µM (inactive) |  |  | > 100 µM (inactive) | > 100 µM (inactive) | > 100 µM (inactive) | > 100 µM (inactive) | > 100 µM (inactive) | > 100 µM (inactive) |  | > 100 µM (inactive) | > 100 µM (inactive) | > 100 µM (inactive) | > 100 µM (inactive) | > 100 µM (inactive) | > 100 µM (inactive) | > 100 µM | > 100 µM (inactive) |
